Test results: US20250100972A1, “COMPOUND, RUBBER BLEND CONTAINING THE COMPOUND, VEHICLE TIRE COMPRISING THE RUBBER BLEND IN AT LEAST ONE COMPONENT, PROCESS FOR PRODUCING THE COMPOUND, AND USE OF THE COMPOUND AS AN AGEING PROTECTANT AND/OR ANTIOZONANT AND/OR DYE” (Continental Reifen Deutschland GmbH, priority 2021, published 2025)

Assays:
[1] = Measurement of oxidation induction time (OIT) by DSC; assay type: physicochemical; conditions: with liquid polyisoprene LIR-50, isothermal 180° C., switch from N2 to O2 atmosphere 50 mL/min, DSC peak; measuring accuracy ± 10 min
Experimental: The compound of formula II) was investigated under laboratory conditions for its potential protective effect as an aging stabilizer by measurement of the oxidation induction time.
To this end the compounds of formula II) and 6-PPD in each case together with a polymer (liquid synthetic polyisoprene (IR), LIR-50, Kuraray, weight average molecular weight distribution Mw=54 000 g/mol, glass transition temperature Tg=−63° C.) were heated at constant temperature (180° C.) until onset of oxidation (start temperature 35° C., heating to 170° C. at a heating rate of 20 K/min (kelvin per minute), heating to 180° C. at a heating rate of 1 K/min; purge gas: nitrogen (N2), volume flow 50 mL/min).
The specimen was isothermally maintained at 180° C. under an N2 atmosphere and the atmosphere was then switched to an O2 atmosphere (volume flow 50 mL/min).
Oxidation was determined via a peak using DSC (differential scanning calorimetry).
The time in minutes to oxidation was measured.

[2] = basic structure compared with aniline; cited from earlier work

Molecule | Time to oxidation (oxidation induction time) [1] [min] | Genotoxicity / mutagenicity according to safety data sheet [2]
CC(C)CC(C)Nc1ccc(Nc2ccccc2)cc1 (stereo not drawn) [6-PPD, N-(1,3-dimethylbutyl)-N′-phenyl-p-phenylenediamine] | 116 ± 10 | –
CC(C)CC(C)Nc1ccc2[nH]c3ccccc3c(=O)c2c1 (stereo not drawn) [Compound of formula II), 2-(1,3-dimethylbutylamino)-acridine-9(10H)-one] | 259 ± 10 | –
acridinone | – | neither genotoxic nor mutagenic
